Literature values as cited in US20070092575A1, “Compositions for administering RNAIII-inhibiting peptides” (priority 2005, published 2007).
Read-outs that look alike come from different tables or passages of the source. Ends that are not written are not given here.

Experiments:
[1] = system: S. aureus MS; settings: Osteomyelitis, rabbit, strain MS, +RIP
[2] = system: S. aureus LS-1; settings: Sepsis, mouse, strain LS-1, +RIP
[3] = system: S. aureus LS-1; settings: Arthritis, mouse, strain LS-1, +RIP
[4] = system: S. aureus 8325-4; settings: Keratitis, rabbit, strain 8325-4, +RIP
[5] = system: S. aureus Newbould 305, AE-1; settings: Mastitis, cow, strain Newbould/AE-1, +RIP
[6] = system: S. aureus strain Smith diffuse; settings: Cellulitis/sepsis, mouse, +RIP
[7] = system: MRSA, MRSE, VISA, VISE, GISA, GISE, MSSA, MSSE; settings: Graft injection, rat, +RIP

In the case of “YSPWTNF(-NH2) (YSPWTNF-NH2) [RIP, amide form of a synthetic RIP analogue]”, the “% animals disease free” value [1] is given as 58%, the “% animals disease free” value [2] is given as 44% and the “% animals disease free” value [3] is given as 60%. For the same substance, the “% animals disease free” value [4] was 40%, the “% animals disease free” value [5] was 70-100% and the “% animals disease free” value [6] was “Up to 100%”. For the same substance, the “% animals disease free” value [7] was “Up to 100%”.
